Assay [1] has as its system transgenic suspension cells (T2 plant 26-4-10). Put plainly: In vitro growth of suspension cells on imazethapyr. Type of assay: cell-based, rice. The conditions noted are these: 8-week culture. As for the experimental part:
(§1) Cell suspension cultures were initiated from immature embryo-derived calli from either transgenic homozygous T2 plant 26-4-10 or Nortai plants in 3SN6d2 liquid medium and cultured two to three months prior to treatment with various concentrations of imazethapyr. The suspension cells were filtered through a 40μ nylon mesh, collected, and resuspended in 3SN6d2 liquid medium 0.2 ml of the suspended cells were loaded onto a Millipore filter, then placed on top of agarose solidified medium containing 0, 0.1, 0.25, 0.5, 1.0, 2.5, 5, 10, 25, or 50 μM imazethapyr (AC263,499). Three weeks later, all cultures were transferred once to fresh media with the same concentrations of imazethapyr and grown for another 5 weeks. Fresh weight was measured at the end of an 8-week culture period.

The subject of assay [2] is Nortai (control) suspension cells. Put plainly: In vitro growth of suspension cells on imazethapyr. In kind it is cell-based, rice. The protocol: as §1
Assay [3] relates to transgenic rice Line 26 (maize XI12 ahas2 gene). Put plainly: Greenhouse spray test of rice with PURSUIT imazethapyr (pre- and post-emergence). In kind it is in vivo.
Assay [4] deals with transgenic wheat plants (0407-1 and progeny). Put plainly: Greenhouse spray test of wheat with RAPTOR imazamox. In kind it is in vivo. An excerpt: (§2) Sow seed to 3×5-cell flats at about 10 seed per cell. Grow the plants for about two weeks. On the day of spraying, water plants well and let excess water drip out. Spray plants on a belt-sprayer with the imidazolinone herbicides at desired rates. […] Resume regular water schedule three days after spraying. Closely observe the plants for the next two to four weeks. Symptoms of herbicide injury will be visible two weeks after spraying and susceptible plants will die four to six weeks later. We usually measure plant height and score the plant morphology with a 0 to 10 rating with 0 for dead plants and 10 for healthy plants with no or minimum injury.
Wheat transformation efficiency, calculated as percent of immature embryos produced at least one imidazolinone-resistant transgenic plant ranged from 0.4 to 3.1% (Table 7). A fertile regenerant 0407-1 generated from early transformation experiment with Agrobacterium (LBA4404) containing pAC1558 was evaluated for resistance to RAPTOR® imazamox post emergence. Untransformed Ciccio and Closseo plants were very sensitive to RAPTOR® imazamox and dead at very low rate.
(§3) We also analyzed T2 progeny plants from one of the best lines of 0407-1-10. T2 seeds were planted at 10 seeds per pot and two pots per line were sprayed at 0, 10, 20, 30, 40 and 50 g/ha RAPTOR® imazamox. Most plants did show an increase in resistance over non-transformed control (FIG. 6B).

Assay [5] concerns transgenic corn hybrids BAa-4 and MAa-7. The assay can be described thus: Greenhouse spray test of corn, statements of the text on both transgenic lines. In kind it is in vivo. The conditions noted are these: 4× (160 g/ha). An excerpt:
Grow one corn plant per pot (5×5 inch) in a 3×5 flat till three- to four-leaf stage (about 9 to 13 days depending on the weather). On the day of spraying, water the plants well and let excess water drip out. Spray plants on a belt-sprayer with the imidazolinone herbicides at desired rates. […] When temperature was too high, base water plants to prevent wilting. Closely observe the plants for the next two to three weeks. Symptoms of herbicide injury will be visible three days after spraying and susceptible plants will die within two to three weeks depending on temperature.
The plants were rated on a scale of 0-5 with 0 for dead plants and 5 for healthy plants with no or minimum injury.
Two transgenic hybrids BAa-4 and MAa-7 lines (see FIG. 5 for their pedigree), a non-transformed control line B×A (B73×A188), 8962IT (heterozygous XI12 imi-tolerant corn line), 8962 (wild type control) and 3395IR (homozygous XA17 imi-resistant corn line) (8962IT and 8962 were from ICI, now Garst Seed Company, Slater, Iowa 50244, and 3395IR was from Pioneer Hi-Bred International Inc, Iowa 50306-3453). Plants were sprayed with 4, 8, 16 or 20×PURSUIT® imazethapyr, ARSENAL® imazapyr, CADRE® imazameth or RAPTOR® imazamox. Plants were scored 0 to 5 (with 0 being dead plants, 5 being healthy plants with no injury) individually 16 days after herbicide treatments. […]

In assay [6] the test system is non-transformed Ciccio and Colosseo wheat plants. The assay can be described thus: Greenhouse spray test of wheat with RAPTOR imazamox. In kind it is in vivo.
Text: as §2, §3

[7] abbreviates: post-emergence, Rate 63 (g ai/ha).
Where [8] appears, read: post-emergence, Rate 125 (g ai/ha).
Setting [9] is: post-emergence, Rate 250 (g ai/ha).

Structures are written as SMILES.

For `CCc1cnc(C2=NC(C)(C(C)C)C(=O)N2)c(C(=O)O)c1` (stereo not shown) [PURSUIT ®, imazethapyr], in assay [1], the “concentration up to which growth of transgenic suspension cells was normal” value was “up to 1.0 μm”, the “concentration with no growth” value came out at 5 μm and the “concentration with sharp decrease in growth” value is given as 2 μm. For the same molecule, in assay [2] (in vitro), the “concentrations that inhibit the growth of untransformed rice cells” value was no less than 0.1 µM. Also, the “concentration at which growth of control cells was halted” value in assay [2] (lowest concentration used, 8-week culture) was 0.1 μm. Moreover, in assay [3] (setting [7]), the “No. panicles/plant Mean” value is listed as 25.3, the “No. tillers/plant Mean” value is 27.1, the “Plant height Mean” value turned out to be 110.1 cm and the “Yield % 0×” value was 98 % 0×. In addition, the “Yield Mean” value in assay [3] (setting [7]) is on record as 206.7 g/5 plants. Also, in assay [3] (setting [8]), the “No. panicles/plant Mean” value was determined as 22.8, the “No. tillers/plant Mean” value is on record as 25.6, the “Plant height Mean” value was 108.1 cm and the “Yield % 0×” value came out at 98 % 0×. Also, the “Yield Mean” value in assay [3] (setting [8]) was 206.0 g/5 plants. In assay [3] (setting [9]), the “No. panicles/plant Mean” value came out at 21.7, the “No. tillers/plant Mean” value is 25.4, the “Plant height Mean” value was 110.3 cm and the “Yield % 0×” value stood at 96 % 0×. In assay [3] (setting [9]), the “Yield Mean” value was found to be 202.7 g/5 plants. In addition, in assay [3] (pre-emergence, 63 g/ha), the “No. panicles/plant Mean” value was found to be 13.2, the “No. tillers/plant Mean” value turned out to be 14.3, the “Plant height Mean” value is on record as 92.2 cm and the “Yield % 0×” value is given as 101 % 0×. Further, the “Yield Mean” value in assay [3] (pre-emergence, 63 g/ha) is 155.3 g/5 plants. In assay [3] (pre-emergence, 125 g/ha), the “No. panicles/plant Mean” value came to 14.4, the “No. tillers/plant Mean” value is given as 15.3, the “Plant height Mean” value amounted to 89.7 cm and the “Yield % 0×” value is on record as 111 % 0×. The “Yield Mean” value in assay [3] (pre-emergence, 125 g/ha) came out at 170.0 g/5 plants. In assay [3] (pre-emergence, 250 g/ha), the “No. panicles/plant Mean” value is given as 15.7, the “No. tillers/plant Mean” value worked out at 13.3, the “Plant height Mean” value was determined as 88.5 cm and the “Yield % 0×” value is 109 % 0×. Further, the “Yield Mean” value in assay [3] (pre-emergence, 250 g/ha) was 167.0 g/5 plants.
With `COCc1cnc(C2=NC(C)(C(C)C)C(=O)N2)c(C(=O)O)c1` (stereo not shown) [RAPTOR ®, imazamox], the “reduction of plant height of resistant transgenic plants” value in assay [4] (20 g/ha, T2 progeny of 0407-1-10) is recorded as “about 25%”. In assay [4] (50 g/ha), the “T1 transgenic plants dead, out of 288” value is 218 and the “T1 transgenic plants that survived, out of 288” value came to 70. In assay [4] (50 g/ha, T1), the “stunting of resistant plants” value is recorded as 33-70%. In addition, the “increase of tolerance in transgenic wheat plants” value in assay [4] (in vivo) is listed as 5 ×. Further, in assay [5], the “injury to transgenic corn plants” value is “no or slight injury”. Further, the “plant heights of Ciccio and Colosseo reduced, less than those of transformed plants” value in assay [6] (10 g/ha) is 50%. Also, the “fate of non-transformed Ciccio” value in assay [6] (50 g/ha) is on record as “caused death”.

The values are drawn from patent publication US6653529B2, “Use of the maize X112 mutant ahas 2 gene and imidazolinone herbicides for selection of transgenic monocots, maize, rice and wheat plants resistant to the imidazolinone herbicides” (BASF Aktiengesellschaft, priority 2000, dated 2003).
